Data as given in PMC11649115, “In vitro safety evaluation of dopamine D3R antagonist, R-VK4-116, as a potential medication for the treatment of opioid use disorder” (PLOS ONE, 2024).
Values joined by “and” are separate entries in the source; they are usually repeats but may differ in a detail not shown here. Equal entries are not always repeated. Where two headings read alike, the source gives them in different places.

Experiments:
[1] = biological target: T1, CHEK2 (Homo sapiens, UniProt O96017); experiment: KINOMEscan binding (% Ctrl, Kd)
T1 construct: made in house; host or cells: E. coli BL21-derived host (T7 phage) or HEK-293
Experimental: (§3) Briefly, E. coli host derived from the BL21 strain were grown to log-phase and infected with kinase-tagged T7 phage and incubated with shaking at 32°C until lysis. The lysates were centrifuged and filtered to remove cell debris. The remaining kinases were produced in HEK-293 cells and subsequently tagged with DNA for qPCR detection. Streptavidin-coated magnetic beads were treated with biotinylated small molecule ligands to generate affinity resins for kinase assays. The liganded beads were blocked with excess biotin and washed to remove unbound ligand and to reduce non-specific phage binding. […] Selectivity Score (S-score) was a quantitative measure of compound selectivity. […] The binding constants (Kds) were also determined with a standard dose-response curve using the Hill equation and Levenberg-Marquardt algorithm [24, 25].

[2] = biological target: T2, TNK1 (Homo sapiens, UniProt Q13470); experiment: KINOMEscan binding (% Ctrl, Kd)
T2 construct: made in house; host or cells: E. coli BL21-derived host (T7 phage) or HEK-293
T2 sequence (Q13470 1-666): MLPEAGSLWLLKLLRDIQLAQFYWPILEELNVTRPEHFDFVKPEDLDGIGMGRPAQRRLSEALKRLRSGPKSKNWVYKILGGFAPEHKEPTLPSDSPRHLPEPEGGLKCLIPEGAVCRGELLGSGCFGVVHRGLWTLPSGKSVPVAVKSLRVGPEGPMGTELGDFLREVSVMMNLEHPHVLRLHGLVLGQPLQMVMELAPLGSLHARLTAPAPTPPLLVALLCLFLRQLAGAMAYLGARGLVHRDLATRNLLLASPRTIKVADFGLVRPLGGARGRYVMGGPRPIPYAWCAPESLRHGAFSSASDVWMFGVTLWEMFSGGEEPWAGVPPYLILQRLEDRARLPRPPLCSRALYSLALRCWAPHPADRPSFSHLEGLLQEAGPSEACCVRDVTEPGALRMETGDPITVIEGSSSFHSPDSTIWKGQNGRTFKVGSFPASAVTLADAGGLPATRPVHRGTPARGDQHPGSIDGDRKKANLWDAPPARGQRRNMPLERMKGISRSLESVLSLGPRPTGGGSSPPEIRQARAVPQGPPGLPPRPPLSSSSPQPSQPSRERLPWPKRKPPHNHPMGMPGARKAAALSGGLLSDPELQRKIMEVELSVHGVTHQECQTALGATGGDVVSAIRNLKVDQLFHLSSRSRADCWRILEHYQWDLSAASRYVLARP
Experimental: as §3

[3] = Plasma protein binding, Sephadex G-25 gel filtration; format: in vitro ADME; conditions: plasma; for fraction unbound at 2 h, 0.5 μM: nominal 0.5 μM; for fraction unbound at 2 h, 1 μM: nominal 1 μM
Experimental: (§1) The gel filtration used solid-phase extraction columns containing hydrated gel filtration beads (Sephadex G-25). […] In this method, the amount of analyte accompanying the proteins (i.e., protein-bound R-VK4-116) before and after filtration was assayed for analyte concentration by LC-MS/MS.

[4] = system: dog plasma proteins; experiment: as above; format: in vitro ADME
Experimental: as §1

[5] = system: rat plasma proteins; experiment: as above; format: in vitro ADME
Experimental: as §1

[6] = Metabolic stability in hepatocyte; conditions: human, hepatocytes in suspension
Experimental: (§4) CYP3A4 substrate Midazolam (10 μM) was prepared and incubated in the same manner. […] In addition, in vitro half-life (t1/2, min) and intrinsic clearance (CLint, μl/min/10^6 cells) were calculated [10, 11].

[7] = system: human hepatocytes; experiment: Metabolic stability in hepatocyte; conditions: for % remaining Vs T = 0 min: human hepatocytes
Experimental: as §4

[8] = biological target: T3, CYP2D6 (Homo sapiens, UniProt P10635); experiment: CYP inhibition in human liver microsomes; conditions: human liver microsomes
[9] = biological target: T3, CYP2D6; experiment: CYP phenotyping, recombinant CYP; format: in vitro ADME; design: purchased XenoTech, LLC, Kansas City, KS; host or cells: bactosomes (bacterial membranes); conditions: recombinant CYP2D6, pH 7.4, incubated with CYP2D6, 1 μM, 120 min
Experimental: (§2) CYP phenotyping involved the identification of CYP isoforms, which involved in the metabolism of R-VK4-116 using recombinant CYP1A2, CYP2B6, CYP2C8, CYP2C9, CYP2C19, CYP2D6, and CYP3A4 (XenoTech, LLC, Kansas City, KS), followed by determination of the Km and Vmax for the metabolites formed by the major CYP isoforms. […] In addition, R-VK4-116 was also incubated with all components in the absence of NADPH. […] Following brief vortexing and centrifugation, 50 μl of supernatant was mixed with 450 μl of 25:75:0.2 acetonitrile/water/formic acid for analysis by LC-MS/MS to determine the remaining R-VK4-116 at each time point based on peak area ratio (PAR) of R-VK4-116 to IS. As a positive control, the known substrate of each individual CYP isoform (phenacetin for CYP1A2, bupropion for CYP2B6, paclitaxel for CYP2C8, diclofenac for CYP2C9, diazepam for CYP2C19, bufuralol for CYP2D6, and testosterone for CYP3A4) was also incubated.

[10] = biological target: CYP3A4 (Homo sapiens, UniProt P08684); experiment: CYP phenotyping, recombinant CYP; format: in vitro ADME; design: purchased XenoTech, LLC, Kansas City, KS; host or cells: bactosomes (bacterial membranes); conditions: recombinant CYP3A4, pH 7.4, incubated with CYP3A4, 1 μM, 120 min
Experimental: as §2

[11] = 11-point curve 0.001 to 10 μM, read-out: binding constant (Kd)
[12] = dog, read-out: % Bound, Mean ± SD (converted)
[13] = rat, read-out: % Bound (converted)
[14] = rat, read-out: % Bound, Mean ± SD (converted)
[15] = Sprague Dawley (rat), Beagle (dog), rat, dog

T1 sequence (O96017 whole entry): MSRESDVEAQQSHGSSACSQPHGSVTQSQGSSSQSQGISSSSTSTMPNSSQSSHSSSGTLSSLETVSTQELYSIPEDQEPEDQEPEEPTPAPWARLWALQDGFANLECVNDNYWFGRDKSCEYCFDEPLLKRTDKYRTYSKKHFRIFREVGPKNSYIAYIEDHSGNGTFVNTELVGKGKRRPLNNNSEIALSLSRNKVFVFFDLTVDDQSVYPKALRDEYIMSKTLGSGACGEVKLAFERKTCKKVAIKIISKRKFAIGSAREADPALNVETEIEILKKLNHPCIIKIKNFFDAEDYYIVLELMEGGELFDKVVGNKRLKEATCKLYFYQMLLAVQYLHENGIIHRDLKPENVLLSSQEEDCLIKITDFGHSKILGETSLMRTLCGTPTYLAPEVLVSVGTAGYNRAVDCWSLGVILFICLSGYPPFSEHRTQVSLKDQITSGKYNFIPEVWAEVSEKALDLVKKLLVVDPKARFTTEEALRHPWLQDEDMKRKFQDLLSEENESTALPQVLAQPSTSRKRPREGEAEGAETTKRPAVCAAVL
T3 sequence (P10635 whole entry): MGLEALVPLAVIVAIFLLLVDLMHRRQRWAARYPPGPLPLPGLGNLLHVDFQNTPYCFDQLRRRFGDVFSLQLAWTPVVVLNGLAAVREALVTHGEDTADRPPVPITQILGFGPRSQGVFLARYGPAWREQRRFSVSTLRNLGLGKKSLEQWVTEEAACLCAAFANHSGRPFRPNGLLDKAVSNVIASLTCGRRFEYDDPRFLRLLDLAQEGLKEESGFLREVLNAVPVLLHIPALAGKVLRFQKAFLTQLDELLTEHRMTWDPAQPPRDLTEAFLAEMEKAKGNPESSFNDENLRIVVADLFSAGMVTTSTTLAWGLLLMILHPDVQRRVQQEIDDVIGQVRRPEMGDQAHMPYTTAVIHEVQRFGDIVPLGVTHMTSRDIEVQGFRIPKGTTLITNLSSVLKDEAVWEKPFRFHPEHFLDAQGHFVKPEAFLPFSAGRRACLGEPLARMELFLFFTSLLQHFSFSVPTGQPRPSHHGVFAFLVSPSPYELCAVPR
Chain of CYP3A4 (P08684 whole entry): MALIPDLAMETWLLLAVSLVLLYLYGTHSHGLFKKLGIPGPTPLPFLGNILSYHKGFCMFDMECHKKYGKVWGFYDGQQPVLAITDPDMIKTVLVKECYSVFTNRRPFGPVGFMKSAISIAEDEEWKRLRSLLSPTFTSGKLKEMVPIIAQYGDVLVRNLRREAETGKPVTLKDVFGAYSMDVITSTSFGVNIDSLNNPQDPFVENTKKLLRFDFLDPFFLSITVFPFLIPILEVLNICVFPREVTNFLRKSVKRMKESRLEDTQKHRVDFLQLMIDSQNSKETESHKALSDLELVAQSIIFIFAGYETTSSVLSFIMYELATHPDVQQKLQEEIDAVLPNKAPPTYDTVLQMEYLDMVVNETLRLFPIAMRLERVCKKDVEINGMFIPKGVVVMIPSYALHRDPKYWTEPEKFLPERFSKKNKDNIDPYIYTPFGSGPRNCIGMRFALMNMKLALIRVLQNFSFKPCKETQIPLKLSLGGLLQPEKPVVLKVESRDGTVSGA

CCc1cc(Cl)c(OC)c(N2CCN(CC(O)CCNC(=O)c3cc4ccccc4[nH]3)CC2)c1 (centres unmarked) [R-VK4-116, N-(4-(4-(3-chloro-5-ethyl-2-methoxyphenyl)piperazin-1-yl)-3-hydroxybutyl)-1H-indole-2-carboxamide]
Kd [1, 11]: > 10 µM | remaining binding at 1 µM ([1]; read-out: %Control): < 35% | remaining binding at 1 µM ([1]; read-out: Gene (S-score with % control): CHEK2): 19% | Kd [2, 11]: > 10 µM | remaining binding at 1 µM ([2]; read-out: %Control): < 35% | remaining binding at 1 µM ([2]; read-out: Gene (S-score with % control): TNK1): 17% | fraction unbound at 2 h, 0.5 μM [3, 12]: 0.164 | fraction unbound at 2 h, 1 μM [3, 12]: 0.173 | fraction unbound at 2 h, 0.5 μM [3, 13]: 0.164 | fraction unbound at 2 h, 0.5 μM [3, 14]: 0.168 | fraction unbound at 2 h, 1 μM [3, 13]: 0.086 | fraction unbound at 2 h, 1 μM [3, 14]: 0.072 | % Bound ([4]; nominal 0.5 μM): 92.1% and 80.8% and 77.9% | Ratio [R-VK4-116] Before Filtration / Eluate ([4]; nominal 0.5 μM): 1.25 and 1.24 | Ratio [R-VK4-116] Before Filtration / Eluate, Mean ± SD ([4]; nominal 0.5 μM): 1.25 ± 0.01 | [R-VK4-116] Before Filtration ([4]; nominal 0.5 μM): 0.618 µM and 0.616 µM and 0.609 µM | [R-VK4-116] In Sephadex G-25 Eluate ([4]; nominal 0.5 μM): 0.495 µM and 0.493 µM and 0.491 µM | % Bound ([4]; nominal 1 μM): 73.3% and 92.5% and 82.4% | Ratio [R-VK4-116] Before Filtration / Eluate ([4]; nominal 1 μM): 1.68 and 1.51 and 1.77 | Ratio [R-VK4-116] Before Filtration / Eluate, Mean ± SD ([4]; nominal 1 μM): 1.65 ± 0.13 | [R-VK4-116] Before Filtration ([4]; nominal 1 μM): 1.05 µM and 1.07 µM | [R-VK4-116] In Sephadex G-25 Eluate ([4]; nominal 1 μM): 0.626 µM and 0.707 µM and 0.604 µM | % Bound ([5]; nominal 0.5 μM): 79.3% and 86.7% | Ratio [R-VK4-116] Before Filtration / Eluate ([5]; nominal 0.5 μM): 1.18 and 1.20 | Ratio [R-VK4-116] Before Filtration / Eluate, Mean ± SD ([5]; nominal 0.5 μM): 1.19 ± 0.01 | [R-VK4-116] Before Filtration ([5]; nominal 0.5 μM): 0.631 µM and 0.630 µM | [R-VK4-116] In Sephadex G-25 Eluate ([5]; nominal 0.5 μM): 0.533 µM and 0.535 µM and 0.525 µM | % Bound ([5]; nominal 1 μM): 93.9% and 93.2% | Ratio [R-VK4-116] Before Filtration / Eluate ([5]; nominal 1 μM): 1.63 and 1.60 and 1.58 | Ratio [R-VK4-116] Before Filtration / Eluate, Mean ± SD ([5]; nominal 1 μM): 1.60 ± 0.02 | [R-VK4-116] Before Filtration ([5]; nominal 1 μM): 1.03 µM and 1.01 µM and 1.02 µM | [R-VK4-116] In Sephadex G-25 Eluate ([5]; nominal 1 μM): 0.632 µM and 0.647 µM | half-life at 0.5 μM [6, 15]: 1.52 to 1.95 h | half-life at 10 μM [6, 15]: 2.82 to 5.78 h | hepatocyte CLint at 0.5 μM [6, 15]: 12 to 16 µL/min/1e6 cells | hepatocyte CLint at 10 μM [6, 15]: 4 to 8 µL/min/1e6 cells | half-life at 0.5 μM [6]: 1.95 h | half-life at 10 μM [6]: 5.63 h | hepatocyte CLint at 0.5 μM [6]: 11.8 µL/min/1e6 cells | hepatocyte CLint at 10 μM [6]: 4.1 µL/min/1e6 cells | % remaining Vs T = 0 min ([7]; 0.5 μM, 0 min): 100.0% | % remaining Vs T = 0 min ([7]; 0.5 μM, 30 min): 89.1% | % remaining Vs T = 0 min ([7]; 0.5 μM, 60 min): 78.4% | % remaining Vs T = 0 min ([7]; 0.5 μM, 90 min): 65.4% | % remaining Vs T = 0 min ([7]; 0.5 μM, 120 min): 48.1% | % remaining Vs T = 0 min ([7]; 10 μM, 0 min): 100.0% | % remaining Vs T = 0 min ([7]; 10 μM, 30 min): 93.2% | % remaining Vs T = 0 min ([7]; 10 μM, 60 min): 85.5% | % remaining Vs T = 0 min ([7]; 10 μM, 90 min): 78.9% | % remaining Vs T = 0 min ([7]; 10 μM, 120 min): 79.7% | metabolic stability ([7]; human, rat, or dog hepatocytes, 0.5 and 10 μM): metabolically stable | CYP2D6 inhibition ([8]; up to 100 μM): did not inhibit CYP significantly | activity at 20 min, 0.1 µM ([8]; human, probe bufuralol): 92.6 ± 9% | activity at 20 min, 0.3 µM ([8]; human, probe bufuralol): 86.1 ± 4% | activity at 20 min, 1 µM ([8]; human, probe bufuralol): 84.3 ± 3.7% | activity at 20 min, 3 µM ([8]; human, probe bufuralol): 92.1 ± 6.8% | activity at 20 min, 10 µM ([8]; human, probe bufuralol): 94.7 ± 6.5% | activity at 20 min, 30 µM ([8]; human, probe bufuralol): 83.1 ± 1.6% | activity at 20 min, 60 µM ([8]; human, probe bufuralol): 84.5 ± 1.8% | activity at 20 min, 100 µM ([8]; human, probe bufuralol): 95 ± 7.5% | remaining at 2 h, 1 μM [9]: 40.6% | remaining at 2 h, 1 μM [10]: 25.6%
